Measured values taken from PubChem BioAssay (NCI).
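Cells were grown in 96-well plates and exposed to each compound for 48 hours at five concentrations; endpoints were interpolated linearly between bracketing concentrations, or set to the highest concentration if not reached. GI50 marks 50% less growth. TGI marks complete inhibition of growth.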

Columns and labels:
Test in all cases: NCI anticancer screen, dose series, 48 h
[1] = system: OVCAR-4 ovarian
[2] = system: 786-0 renal
[3] = system: OVCAR-5 ovarian
[4] = system: SK-MEL-2 melanoma
[5] = system: MDA-MB-435
[6] = system: SF-295 CNS
[7] = system: HCC-2998 colon
[8] = system: HCT-15 colon

SMILES	TGI [1] [µM]	TGI [2] [µM]	TGI [3] [µM]	TGI [4] [µM]	TGI [5] [µM]	TGI [6] [µM]	TGI [7] [µM]	TGI [8] [µM]	GI50 [1] [µM]	GI50 [4] [µM]	GI50 [5] [µM]	GI50 [6] [µM]	GI50 [7] [µM]	GI50 [8] [µM]
COC(=O)c1c(C#C[Si](C)(C)C)c(C#C[Si](C)(C)C)c(C#C[Si](C)(C)C)c(C#C[Si](C)(C)C)c1C(=O)OC	> 100	> 100	> 100	> 100	> 100	> 100	> 100	> 100	–	–	–	–	–	–
COc1ccc(N2C(=O)/C(=C/c3ccc(N(CCC#N)CCC#N)cc3)N=C2c2ccccc2)c(OC)c1	> 100	> 100	> 100	–	> 100	> 100	> 100	> 100	–	–	–	–	–	–
O=c1/c(=C/c2ccc(-c3ccc(Cl)cc3Cl)o2)sc2n1[C@@H](c1ccc3c(c1)OCO3)C=C(c1cc(F)c(Cl)cc1Cl)N=2	> 100	> 100	> 100	71.1	> 100	> 100	–	> 100	–	–	–	–	–	–
CC(C)CC(NC(=O)C(COc1ccc([N+](=O)[O-])cc1)Cc1ccccc1)C(=O)Nc1ccccc1 (stereo not given)	8.33	29.5	> 100	74.1	> 100	26.2	80.2	> 100	–	–	–	–	–	–
COc1ccc(NC(=S)NNC(=O)c2cc(-c3ccccc3)nc3ccccc23)cc1	65.1	40.5	58.8	38.9	13.4	16.4	24.6	33.7	–	–	–	–	–	–
C=C1C(=O)O[C@H]2C3C(=C(C)CC[C@@H]12)C(=O)[C@@H]1OC31C (stereo not given in full)	3.39	3.26	23.3	18.3	7.13	27.3	29.7	3.16	–	–	–	–	–	–
CCCC(=O)OC1CC(n2cc(F)c(=O)[nH]c2=O)OC1CO (stereo not given)	> 10	> 10	> 10	> 10	> 10	> 10	> 10	> 10	–	–	–	–	–	–
CCOC(=O)c1cn(C)nc1N/C(C)=C\C(=O)c1ccccc1	> 100	> 100	> 100	–	> 100	> 100	> 100	> 100	–	–	–	–	–	–
CN(C)c1ccc(/C=C2\C[C@H]3[C@@H]4CCc5cc(O)ccc5[C@H]4CC[C@]3(C)C2=O)cc1	> 100	–	> 100	> 100	> 100	> 100	> 100	> 100	–	–	–	–	–	–
Cc1ccc2c(=O)c(C(=O)N(CCO)CCO)c[nH]c2n1	> 100	> 100	> 100	> 100	> 100	> 100	–	> 100	–	–	–	–	–	–
OC(O)(C(F)(F)F)C(F)(F)F	> 100	> 100	> 100	> 100	> 100	> 100	> 100	> 100	–	–	–	–	–	–
N#Cc1c(C#N)c(-c2ccccc2)n(/N=C\c2ccccc2)c1N	59.9	> 100	> 100	87.3	> 100	65.8	89.9	> 100	–	–	–	–	–	–
CSC1NNC2(C(=O)N1)c1ccccc1-c1ccccc12 (stereo not given)	> 10	> 10	–	–	> 10	> 10	> 10	> 10	–	–	–	–	–	–
Cc1nn(-c2ccccn2)c2c1C(SC#N)=C(C=O)CC2	–	25.1	20.7	30.5	37.7	> 100	24.2	34	–	–	–	–	–	–
CCOC(=O)CCC(C(=O)OCC)n1nnc2cc(Nc3c(C)[n+]([O-])c4ccc(Cl)cc4[n+]3[O-])ccc21 (stereo not given)	> 100	> 100	> 100	> 100	> 100	> 100	–	> 100	–	–	–	–	–	–
CCOC(=O)N1C(=S)C(C(=O)OC)(C(=O)OC)N=C1C	> 100	> 100	> 100	> 100	> 100	> 100	> 100	> 100	–	–	–	–	–	–
CCOC(=O)c1cc(-c2ccn(C(C)=O)c2)c(-c2cc(C)co2)[nH]1	> 100	> 100	> 100	> 100	> 100	> 100	> 100	> 100	–	–	–	–	–	–
COC(=O)[C@@H]1O[C@]12[C@@H](CO[Si](C)(C)C(C)(C)C)O[C@@H](n1cc(C)c(=O)[nH]c1=O)[C@@H]2O[Si](C)(C)C(C)(C)C	> 100	–	36.6	30.1	59.2	49.7	–	17.3	–	–	–	–	–	–
c1ccc2c(c1)c1c3n2-c2cc(on2)C3CCC1 (stereo not given)	> 100	> 100	> 100	> 100	> 100	> 100	> 100	> 100	–	–	–	–	–	–
COC(=O)C(C(=O)OC)C1CC(=O)c2c(Br)sc(Br)c21 (stereo not given)	26.3	> 100	28.9	27.4	40.9	60.9	27.4	21.6	–	–	–	–	–	–
COc1ccc(C(C)NNC(=O)c2ccncc2)cc1F (stereo not given)	> 100	> 100	> 100	> 100	> 100	> 100	> 100	> 100	–	–	–	–	–	–
S=C(Nc1ccc2c(c1)Cc1ccccc1-2)Nc1ccc2c(c1)Cc1ccccc1-2	> 100	> 100	> 100	–	> 100	> 100	> 100	> 100	–	–	–	–	–	–
O=c1oc2ccccc2c(O)c1Cc1cccc(Cc2c(O)c3ccccc3oc2=O)c1	> 100	> 100	> 100	> 100	> 100	> 100	> 100	> 100	–	–	–	–	–	–
Cn1c(=O)c2[nH]c(CCC(=O)O)nc2n(C)c1=O	> 100	> 100	> 100	> 100	> 100	> 100	> 100	> 100	–	–	–	–	–	–
COC(=O)C1[C@H](C(=O)OC)C1(Br)CBr (stereo not given in full)	> 100	> 100	> 100	> 100	> 100	> 100	> 100	> 100	–	–	–	–	–	–
CCOC(=O)C1=C(C)N(c2ccc(C)cc2)C2(O)C=CC(=O)C3=C(O)c4ccccc4C(=O)C312 (stereo not given)	90.9	> 100	> 100	94.1	> 100	> 100	59.4	> 100	–	–	–	–	–	–

SMILES	TGI [1] [µM]	TGI [2] [µM]	TGI [3] [µM]	TGI [4] [µM]	TGI [5] [µM]	TGI [6] [µM]	TGI [7] [µM]	TGI [8] [µM]	GI50 [1] [µM]	GI50 [4] [µM]	GI50 [5] [µM]	GI50 [6] [µM]	GI50 [7] [µM]	GI50 [8] [µM]
O=C(NCc1cccnc1)C(=O)NCc1cccnc1	> 100	> 100	> 100	> 100	> 100	> 100	> 100	> 100	–	–	–	–	–	–
N#Cc1c(-c2ccc(Cl)cc2)cc(-c2nc3ccccc3[nH]2)nc1N	36.2	23.3	43.4	25.9	18.8	49.1	14.3	36.3	–	–	–	–	–	–
c1cc2ccc1CNCCN1CCNCc3ccc(cc3)Oc3ccc(cc3)CNCCN(CCNCc3ccc(cc3)O2)CCNCc2ccc(cc2)Oc2ccc(cc2)CNCC1	3.34	–	–	3.14	2.7	3.18	1.99	20.1	1.79	1.6	1.36	1.76	0.659	4.62
CC1(C)CC(=O)C(=CN2C(=O)CNC2=S)C(=O)C1	> 100	> 100	> 100	> 100	> 100	> 100	> 100	> 100	–	–	–	–	–	–
O=S(=O)(/N=C1/SC(=Nc2ccccc2)N(c2ccccc2)/C1=N/S(=O)(=O)c1ccccc1)c1ccccc1	–	41.1	51.6	45	–	–	48.7	34.5	–	–	–	–	–	–
O=C(NC/C=C/Br)NC1CCNc2ccccc21 (stereo not given)	> 100	81.9	> 100	86.8	88.9	> 100	59	> 100	–	–	–	–	–	–
CC(C)c1nccn1Cc1ccc(Cl)cc1Cl	> 100	> 100	> 100	> 100	> 100	> 100	88.6	> 100	–	–	–	–	–	–
C=C(C(=O)OC)[C@H]1CC/C(C)=C/CC/C(C)=C/CC[C@@]2(C)O[C@@H]2C1	> 100	29.2	48.2	29.9	58.5	29.6	30.8	31.7	–	–	–	–	–	–
COc1ccc(C2NC(=O)Nc3c2c(=O)oc2c3ccc3ccccc32)cc1 (stereo not given)	> 100	> 100	> 100	82.8	> 100	> 100	–	> 100	–	–	–	–	–	–
O=C1C(=Cc2ccccc2[N+](=O)[O-])N=C(c2ccccc2)N1n1c(-c2ccccc2)nc2ccccc2c1=O	> 100	> 100	> 100	88.2	> 100	> 100	> 100	> 100	–	–	–	–	–	–
O=C(NCCCCNCCCNC(=O)OCc1ccccc1)OCc1ccccc1	> 100	55.5	> 100	59.8	> 100	51.5	38.7	> 100	–	–	–	–	–	–
Cc1cccc(C(O)c2cccnc2)c1O (stereo not given)	–	–	> 100	–	> 100	> 100	> 100	> 100	–	–	–	–	–	–
CC1(C)CC2(C)OC(=N)C1(C#N)C2(C#N)C#N (stereo not given)	–	16.7	27.3	31.7	33.3	31.5	24.4	4.84	–	–	–	–	–	–
COC(=O)C1=C(C)NC2(C)OC(C)(O)C(C(C)=O)C12C(C)=O (stereo not given)	> 100	> 100	> 100	54.6	> 100	> 100	–	> 100	–	–	–	–	–	–
c1ccc(CNc2ncnc3n[nH]nc23)cc1	> 100	> 100	> 100	> 100	> 100	> 100	> 100	> 100	–	–	–	–	–	–
COc1cc(S(=O)(=O)N/N=C/c2cc(Br)c(O)c(OC)c2)c(OC)cc1NC(C)=O	> 100	66.5	> 100	> 100	> 100	> 100	–	> 100	–	–	–	–	–	–
O=S(=O)(O)c1ccc(Nc2ccnc3cc(Cl)ccc23)cc1	> 100	> 100	> 100	> 100	> 100	> 100	> 100	> 100	–	–	–	–	–	–
O=c1c(-c2ccc(O)cc2)coc2cc(O)cc(O)c12	> 100	> 100	> 100	–	> 100	> 100	> 100	> 100	–	–	–	–	–	–
CCOC(=O)c1c(-c2ccc(OC)c(O)c2)c(C#N)c(=S)n(C2OC(CO)C(O)C(O)C2O)c1-c1ccccc1 (stereo not given)	> 100	> 100	–	–	> 100	> 100	> 100	> 100	–	–	–	–	–	–
C[n+]1c(-c2ccc(/C=N/Nc3ccnc(N/N=C/c4ccc(-c5cn6ccccc6[n+]5C)cc4)n3)cc2)cn2ccccc21	> 100	> 100	> 100	–	–	79.6	> 100	> 100	–	–	–	–	–	–
O=C(Nc1nc(C23CC4CC(CC(C4)C2)C3)cs1)c1cc2cc([N+](=O)[O-])ccc2oc1=O	44.8	45.2	> 100	–	> 100	> 100	> 100	> 100	–	–	–	–	–	–
O=C(NCc1ccccc1)c1c(O)c2ccccc2[nH]c1=O	> 100	> 100	> 100	–	> 100	> 100	> 100	> 100	–	–	–	–	–	–
Cc1nnc(CC#N)n1NC(=O)CC#N	–	> 100	> 100	> 100	> 100	> 100	> 100	> 100	–	–	–	–	–	–
CC1(C)Oc2ccc3c(=O)c4ccccc4oc3c2C1C(=O)O (stereo not given)	> 100	> 100	> 100	> 100	> 100	> 100	> 100	–	–	–	–	–	–	–
O=C(C=P(c1ccccc1)(c1ccccc1)c1ccccc1)c1ccc(-c2ccc(F)cc2F)cc1	9.96	13.7	9.29	–	5.79	9.87	4.12	7.81	–	–	–	–	–	–
